The supplement of paper PMC9938120

Legend:
Assay in all cases: drug sensitivity score (DSS3, normalised partial AUC of % inhibition dose-response) (DSS (score)); higher = more sensitive (stronger inhibition of viability); extreme values may be limits of the assay
FMOC02_2 = patient-derived low-grade serous ovarian cancer cells; settings: 72 h; library: FO5A; assay format: 2D, 384-well, CellTiter-Glo
Summary of the method: (§1)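 On 384-well flat clear-bottom plates carrying compounds at five concentrations across a 10,000-fold range, patient-derived ovarian cancer cells below passage 10 were incubated for 72 h at 37 °C with 5% CO2. CellTiter-Glo readout of viability was processed in Breeze. A higher drug sensitivity score, defined as the partial area under the percent-inhibition dose-response curve divided by the log of the upper asymptote, means greater sensitivity.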

FMOC24 = patient-derived high-grade serous ovarian cancer cells; settings: 72 h; library: FO5A; assay format: 2D, 384-well, CellTiter-Glo
Summary of the method: as §1

FMOC04 = patient-derived high-grade serous ovarian cancer cells; settings: 72 h; library: FO5A; assay format: 2D, 384-well, CellTiter-Glo
Summary of the method: as §1

FMOC25_1 = patient-derived low-grade serous ovarian cancer cells; settings: 72 h; library: FO4B; assay format: 2D, 384-well, CellTiter-Glo
Summary of the method: as §1

FMOC11 = patient-derived high-grade serous ovarian cancer cells; settings: 72 h; library: FO5A; assay format: 2D, 384-well, CellTiter-Glo
Summary of the method: as §1

FMOC28 = patient-derived low-grade serous ovarian cancer cells; settings: 72 h; library: FO5A; assay format: 2D, 384-well, CellTiter-Glo
Summary of the method: as §1

FMOC02_3 = patient-derived low-grade serous ovarian cancer cells; settings: 72 h; library: FO5A; assay format: 2D, 384-well, CellTiter-Glo
Summary of the method: as §1

FMOC02_1 = patient-derived low-grade serous ovarian cancer cells; settings: 72 h; library: FO5A; assay format: 2D, 384-well, CellTiter-Glo
Summary of the method: as §1

FMOC22 = patient-derived mucinous ovarian cancer cells; settings: 72 h; library: FO5A; assay format: 2D, 384-well, CellTiter-Glo
Summary of the method: as §1

FMOC06 = patient-derived mucinous ovarian cancer cells; settings: 72 h; library: FO5A; assay format: 2D, 384-well, CellTiter-Glo
Summary of the method: as §1

FMOC25_2 = patient-derived low-grade serous ovarian cancer cells; settings: 72 h; library: FO5A; assay format: 2D, 384-well, CellTiter-Glo
Summary of the method: as §1

FMOC27 = patient-derived low-grade serous ovarian cancer cells; settings: 72 h; library: FO5A; assay format: 2D, 384-well, CellTiter-Glo
Summary of the method: as §1

FMOC14 = patient-derived high-grade serous ovarian cancer cells; settings: 72 h; library: FO5A; assay format: 2D, 384-well, CellTiter-Glo
Summary of the method: as §1

FMOC17 = patient-derived low-grade serous ovarian cancer cells; settings: 72 h; library: FO5A; assay format: 2D, 384-well, CellTiter-Glo
Summary of the method: as §1

FMOC03 = patient-derived mucinous ovarian cancer cells; settings: 72 h; library: FO5A; assay format: 2D, 384-well, CellTiter-Glo
Summary of the method: as §1

FMOC09 = patient-derived high-grade serous ovarian cancer cells; settings: 72 h; library: FO5A; assay format: 2D, 384-well, CellTiter-Glo
Summary of the method: as §1

SMILES	drug sensitivity score (FMOC02_2)	drug sensitivity score (FMOC24)	drug sensitivity score (FMOC04)	drug sensitivity score (FMOC25_1)	drug sensitivity score (FMOC11)	drug sensitivity score (FMOC28)	drug sensitivity score (FMOC02_3)	drug sensitivity score (FMOC02_1)	drug sensitivity score (FMOC22)	drug sensitivity score (FMOC06)	drug sensitivity score (FMOC25_2)	drug sensitivity score (FMOC27)	drug sensitivity score (FMOC14)	drug sensitivity score (FMOC17)	drug sensitivity score (FMOC03)	drug sensitivity score (FMOC09)
O=C(c1ccc(C(=O)N2CCC(N3CCCC3)CC2)c(Nc2ccccc2)c1)N1CCC(N2CCCC2)CC1 [UNC1215]	0.3	0	0	0	0	0	0	0	0	0	0	0	0	0	0	0
N[C@@H]1CCCN(c2c(/C=C3\SC(=O)NC3=O)cccc2-c2ccccc2)C1 [AZD1208]	0	0	0	0.5	0	0	5.9	1	0	4.7	2.4	0	0	0	0	3.2
CCCCCCCCCCCCCCCCCCOP(=O)([O-])OC1CC[N+](C)(C)CC1 [Perifosine]	0	3.35	0	0	0	0	0	0	0	0.1	0.5	0	0	0	0	0
CCOc1ccn(-c2ccc(F)cc2)c(=O)c1C(=O)Nc1ccc(Oc2ccnc(N)c2Cl)c(F)c1	0.9	0	0	0	0	0	0	0	0	0	0	0	0	0	0	0
CN1CC[C@@H](NC(=O)Nc2ccc(C#N)cc2)C[C@@H]1c1nc2ccccc2[nH]1 [Glasdegib]	0.4	2.75	0	0.1	0	3.7	0	0	0	0	5.2	0	0	0	0	0
C[C@@H]1CN(Cc2ccc(F)cc2)[C@@H](C)CN1C(=O)c1cc2c(C(=O)C(=O)N(C)C)cn(C)c2cc1Cl [Talmapimod]	0	0	0	0	0.2	1.2	0	0	0	0	0	0	0	0	0	0
N#CC1(c2ccc(NC(=O)c3cccnc3NCc3ccncc3)cc2)CCCC1 [Apatinib]	1.1	0.1	0.6	2.3	0	4.5	1.5	0.3	0	0	1.5	0	0	0	0	0
C[C@]12C=CC(=O)C=C1CC[C@@H]1[C@@H]2[C@@H](O)C[C@@]2(C)[C@H]1CC[C@]2(O)C(=O)CO [Prednisolone]	0	0.65	0	0	0	0	0	0.1	0	0.7	0	0	0	0	0	0
CCNc1nc(Nc2cc(F)c(C(=O)N3CCOCC3)cc2OC)ncc1C(F)(F)F [GNE-7915]	0	0	0	0	0	2	1	0	0	0	0	0	0	0	0	0
O=C(Nc1cccnc1)N1CCC(Cc2cccc(Oc3ccc(C(F)(F)F)cn3)c2)CC1 [PF-3845]	3.3	0.4	0	1.7	0	2.5	1.2	1.1	1.5	0.1	0	1.9	0	1.6	2.3	0
CC1(C)CNc2cc(NC(=O)c3cccnc3NCc3ccncc3)ccc21 [Motesanib]	0.5	0.15	0	1	0.2	2.4	2.9	0	0	1.1	0.1	0.6	0	0	0	0
CC(=O)c1c(C)c2cnc(Nc3ccc(N4CCNCC4)cn3)nc2n(C2CCCC2)c1=O [Palbociclib]	4.9	2.95	0.65	2.5	1.4	3.9	6.2	3.8	0.5	2.5	5.2	1.1	1.6	0.7	2.7	0.5
Nc1nc(F)nc2c1ncn2[C@@H]1O[C@H](CO)[C@@H](O)[C@@H]1O [Fludarabine]	0.5	0	0	4.3	0	0	2	3	1.3	0.9	1.9	0	0	0	0	0.8
Cn1cc(C2=C(c3cn(C4CCN(Cc5ccccn5)CC4)c4ccccc34)C(=O)NC2=O)c2ccccc21 [Enzastaurin]	4.4	3.95	0	0	0	0	5.8	4.8	0.3	0	0	0.3	5	5.1	0.5	1.5
COc1cc(N2CCN(C)CC2)ccc1Nc1nccc(-c2cn(C)c3cnccc23)n1 [AZ191]	3.8	6.15	0.2	0	1.4	2.3	2.9	4	0.7	1.9	1.5	1.6	0.4	1.7	0.5	2.2
COc1cc(Nc2ncc(F)c(Nc3ccc4c(n3)N(COP(=O)(O)O)C(=O)C(C)(C)O4)n2)cc(OC)c1OC [Fostamatinib]	3.5	3.6	0	8.6	2.6	1.9	7.6	6.7	0.4	2.6	6.6	1.1	0	3.4	2.3	1.2
Cn1cnc2c(F)c(Nc3ccc(Br)cc3F)c(C(=O)NOCCO)cc21 [Binimetinib]	7.1	0	0	6.6	0	1.6	7.1	5.5	3.6	7.6	3.2	2.2	0	6	4.8	4.2
CC1(C)CCC(CN2CCN(c3ccc(C(=O)NS(=O)(=O)c4ccc(NCC5CCOCC5)c([N+](=O)[O-])c4)c(Oc4cnc5[nH]ccc5c4)c3)CC2)=C(c2ccc(Cl)cc2)C1 [Venetoclax]	0	1.8	0	0	0	0	0	0	0	0	0	0.3	0	0	0	0
CNC(=O)c1ccc(N2C(=S)N(c3ccc(C#N)c(C(F)(F)F)c3)C(=O)C2(C)C)cc1F [Enzalutamide]	0	0	0	0	0	0	0	0	0	0.1	0	0.1	0	0	0	0
Cc1c(Cn2c(C)nc3c(C(=O)O)cc(N4CCOCC4)cc32)cccc1C(F)(F)F	6.3	3	0.65	3.5	0	7.2	2.2	0	0	0.6	11.4	0.1	2.5	0	0.5	0
C[C@]12CC[C@@H]3c4ccc(O)cc4C[C@@H](CCCCCCCCC[S+]([O-])CCCC(F)(F)C(F)(F)F)[C@H]3[C@@H]1CC[C@@H]2O (stereo partly drawn) [Fulvestrant]	0	0	0	0	0	0	0	0	0	0	0	0	0	0	0	0
C[C@]1(O)C[C@@H](c2nc(-c3ccc4ccc(-c5ccccc5)nc4c3)c3c(N)nccn32)C1 [Linsitinib]	2.7	2.1	2.5	3.7	0.1	4.9	6.9	1.2	0	0.8	5.8	0	0	0.6	0.1	0.1
FC(F)(F)c1ccc(/C=C/c2nc(COc3ccc(CCCCn4ccnn4)cc3)co2)cc1 [Mubritinib]	0	0	0	0.1	0.6	0	0	0	3	0.6	1.1	1.7	0.7	0	3.9	0
